Values joined by “and” are separate entries in the source; they are usually repeats but may differ in a detail not shown here. Equal values may be shown once. “Also recorded” adds a separate entry of the source. Read-outs that look alike come from different tables or passages of the source.
What was measured:
Rat Androgen Receptor = Rat Androgen Receptor (Rattus norvegicus (Rat), UniProt P15207); test: Androgen receptor assay: [3H]R1881 displacement, rat prostate cytosol; format: binding; settings: for Rat Androgen Receptor Binding RBA (%) R1881 = 100: relative binding affinity, prostate cytosol
Description: On the morning of the binding assay, ventral prostates collected from 24 h-gonadectomized rats were homogenized in buffer A (1 g of tissue in 5 mL) and the homogenate was centrifuged as described above.
Androgen binding is measured using the hydroxylapatite (HAP) assay. In brief, the radioactive steroid [^3H]R1881 solubilized in ethanol is diluted with buffer B (10 mM Tris-HCl, 1.5 mM EDTA disodium salt, 10 mM α-monothioglycerol, pH 7.4). Aliquots of the cell or prostate cytosol preparation (0.1 ml) are then incubated with 5 nM [^3H]R1881 (0.1 ml, ˜100 000 cpm) in the presence or absence of the indicated concentrations of unlabeled compounds (0.1 ml, prepared in buffer B containing 30% ethanol) for 16-18 h at 0-4° C. Triamcinolone acetonide (TAC; 100 nM) is added to mask progesterone receptors. Unbound steroids are separated by incubation for 40 min at 0-4° C. with 0.3 ml HAP prepared in buffer P (50 mM Tris-HCl, 10 mM KH2PO4, pH 7.4). After incubation with HAP and 10 min of centrifugation at 1000×g, the pellet is washed 3 times with 1 ml of buffer P. Thereafter, the radioactivity is extracted from the pellet by incubation at room temperature for 60 min with 1 ml of ethanol. After centrifugation, the supernatant is decanted into a scintillation vial and the pellet is extracted again with ethanol. After the addition of scintillation liquid, the radioactivity is measured in a liquid scintillation counter.
Relative binding affinity (RBA) was calculated by the following formula: RBA (%) [IC50(R1881)/IC50 (compound)]×100 B—In Vitro Assay of Androgenic/Antiandrogenic Activity

[1] = tested on: Shionogi mouse mammary carcinoma cells; test: In vitro androgenic/antiandrogenic activity: proliferation of Shionogi cells with or without DHT; format: cell-based
[2] = tested on: PSA levels in human prostatic carcinoma LNCaP cells; test: Prostate specific antigen (PSA) in LNCaP cells with or without R1881; format: cell-based; settings: for LNCaP Cells Antiandrogenic activity (PSA) % inhibition at 10^−7M: R1881-stimulated, 10^−7M of compound; for inhibition at 0.1 µM: Homo sapiens, read-out: LNCaP Cells Antiandrogenic activity (PSA) % inhibition at 10^−7M, R1881-stimulated, 10^−7M of compound
Description: LNCaP cells were cultured as previously described (Qi et al. 2001). In brief, the LNCaP cells were cultured for 6 days in 1.0 ml RPMI 1640 supplemented with hormone-depleted 0.25% FCS before each experiment. At the start of the experiment, half of the medium (0.5 ml) was replaced with 0.5 ml of identical medium containing the appropriate concentrations of tested compounds, in the presence or absence of 1.0 nM of R1881. After 72 h of incubation of LNCaP cells with compounds, 0.5 ml of culture medium was removed for PSA determination. PSA levels were measured using the PSA [^125I] IRMA KIT (REF: RK-10CT) from Izotop (Institute of Isotopes Ltd, Budapest, Hungary).

Human Androgen Receptor = Human Androgen Receptor (Homo sapiens (Human), UniProt P10275); test: Androgen receptor assay: [3H]R1881 displacement, cytosol of HEK-293 cells transfected with hAR (hydroxylapatite assay); format: binding; settings: for Human Androgen Receptor Binding RBA (%) R1881 = 100: relative binding affinity; for times more binding to the human androgen receptor than the corresponding hydantoin: thiohydantoin versus hydantoin (EM-9052 vs EM-9150; EM-7105 vs EM-7333); for affinity for the androgen receptor (in words): SAR discussion
Androgen Receptor = test: Overall classification (antiandrogen / SARM) in the models studied
[3] = tested on: castrated (CX) immature male rats; test: Systemic androgenic (agonistic) activity in orchidectomized (CX) immature male rats; format: in vivo, rat; settings: for CX Agonistic activity % Stimulation Bulbo / CX Agonistic activity % Stimulation SV / CX Agonistic activity % Stimulation Prostate: 0.1 mg/rat/po, 7 days; for CX Agonistic activity % Stimulation Bulbo: bulbocavernosus muscles weight; for CX Agonistic activity % Stimulation SV: seminal vesicles weight; for CX Agonistic activity % Stimulation Prostate: ventral prostate weight
[4] = Oral absorption, Experiment 2: plasma, intraprostatic and intramuscular concentrations after 0.5 mg EM-9150/animal in castrated male rats; format: in vivo; settings: Sprague-Dawley, rat, 0.5 mg/animal; for concentration at 7 h: po
Description: Castrated male Sprague-Dawley rats (Crl:CD(SD)Br) weighing 275-375 g were used for pharmacokinetic studies. Animals were fasted (access to water only) from around 16 h00 the afternoon prior to the dosing day.
Blood samples (˜0.5 mL/timepoint) were collected by jugular venipuncture on animals under isoflurane anesthesia at 1, 2, 3, 4, 7 and 24 h post-dosing. Blood samples were put into tubes containing EDTA(K3) as anticoagulant and centrifuged at 4° C. for 10 min at 1700-2400 g. The resulting plasma was frozen on dry ice and kept at −80° C. pending analysis. […] Prostates and bulbocavernosus muscles were frozen in liquid nitrogen and kept at −80° C. until being used. A buffer and an ethanol-acetone solution were added to the tissue and homogenized with a Polytron. The supernatant was collected, evaporated to dryness and reconstituted in buffer.
Intraprostatic and intramuscular concentrations of the compounds were also determined by LC-MS/MS.

[5] = DHT (0.3 nM)-stimulated cell number, read-out: Shionogi Antiandrogenic Activity IC50
[6] = Mus musculus, read-out: Shionogi Antiandrogenic Activity IC50, DHT (0.3 nM)-stimulated cell number

Sequence of Human Androgen Receptor (P10275 whole entry): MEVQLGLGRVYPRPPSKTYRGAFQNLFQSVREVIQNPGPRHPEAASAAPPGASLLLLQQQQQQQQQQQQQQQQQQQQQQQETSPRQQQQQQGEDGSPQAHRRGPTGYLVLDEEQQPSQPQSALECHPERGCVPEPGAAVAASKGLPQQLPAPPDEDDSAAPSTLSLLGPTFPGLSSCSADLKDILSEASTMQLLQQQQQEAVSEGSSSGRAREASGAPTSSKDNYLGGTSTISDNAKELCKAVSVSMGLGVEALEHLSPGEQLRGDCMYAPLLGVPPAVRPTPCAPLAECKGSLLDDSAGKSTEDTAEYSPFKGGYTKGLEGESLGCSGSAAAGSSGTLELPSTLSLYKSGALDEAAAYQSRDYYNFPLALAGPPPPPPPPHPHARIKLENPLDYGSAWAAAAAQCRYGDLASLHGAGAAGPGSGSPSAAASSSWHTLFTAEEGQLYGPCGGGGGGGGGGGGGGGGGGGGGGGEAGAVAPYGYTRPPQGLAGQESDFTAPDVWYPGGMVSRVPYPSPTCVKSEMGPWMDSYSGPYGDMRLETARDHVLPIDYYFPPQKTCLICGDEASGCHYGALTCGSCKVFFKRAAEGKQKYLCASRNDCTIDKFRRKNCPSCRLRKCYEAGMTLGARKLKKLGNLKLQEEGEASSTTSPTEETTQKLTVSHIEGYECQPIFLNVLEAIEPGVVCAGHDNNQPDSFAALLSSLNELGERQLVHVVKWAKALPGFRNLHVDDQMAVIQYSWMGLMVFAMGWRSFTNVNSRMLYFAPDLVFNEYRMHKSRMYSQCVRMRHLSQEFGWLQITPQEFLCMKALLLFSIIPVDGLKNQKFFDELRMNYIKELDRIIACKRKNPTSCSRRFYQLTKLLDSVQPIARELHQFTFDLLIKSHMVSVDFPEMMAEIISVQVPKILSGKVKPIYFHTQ
Sequence of Rat Androgen Receptor (P15207 whole entry, looked up): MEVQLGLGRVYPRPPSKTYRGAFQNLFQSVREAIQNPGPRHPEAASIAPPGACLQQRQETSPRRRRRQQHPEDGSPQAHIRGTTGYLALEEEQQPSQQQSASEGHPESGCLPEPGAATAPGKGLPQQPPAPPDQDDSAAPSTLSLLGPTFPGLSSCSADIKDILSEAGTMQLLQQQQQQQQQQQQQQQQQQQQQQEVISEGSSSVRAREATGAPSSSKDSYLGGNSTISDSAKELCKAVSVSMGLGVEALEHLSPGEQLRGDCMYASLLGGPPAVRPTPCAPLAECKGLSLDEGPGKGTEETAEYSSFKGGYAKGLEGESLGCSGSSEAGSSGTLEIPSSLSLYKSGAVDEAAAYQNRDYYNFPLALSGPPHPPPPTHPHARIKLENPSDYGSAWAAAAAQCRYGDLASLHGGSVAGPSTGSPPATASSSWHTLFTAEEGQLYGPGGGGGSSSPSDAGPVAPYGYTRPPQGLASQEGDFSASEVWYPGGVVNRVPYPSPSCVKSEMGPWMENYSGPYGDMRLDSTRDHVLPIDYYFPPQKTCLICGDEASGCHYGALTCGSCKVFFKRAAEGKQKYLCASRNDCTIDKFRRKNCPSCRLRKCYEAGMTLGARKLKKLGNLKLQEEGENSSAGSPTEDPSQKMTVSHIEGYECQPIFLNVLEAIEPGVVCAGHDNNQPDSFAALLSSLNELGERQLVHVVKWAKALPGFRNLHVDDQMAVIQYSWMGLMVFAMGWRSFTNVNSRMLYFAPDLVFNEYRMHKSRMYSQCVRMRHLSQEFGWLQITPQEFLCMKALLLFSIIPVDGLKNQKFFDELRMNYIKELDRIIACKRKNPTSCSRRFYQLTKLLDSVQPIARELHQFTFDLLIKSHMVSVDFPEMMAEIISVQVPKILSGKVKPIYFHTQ

SMILES | IC50 [1, 6] | classification as antiandrogen or SARM (in words) (Androgen Receptor) | CX Agonistic activity % Stimulation Bulbo [3] | CX Agonistic activity % Stimulation SV [3] | CX Agonistic activity % Stimulation Prostate [3] | Human Androgen Receptor Binding RBA (%) R1881 = 100 (Human Androgen Receptor; […]) | also measured
CC(C)NCc1ccc(OCCCN2C(=S)N(c3ccc(C#N)c(C(F)(F)F)c3)C(=O)C2(C)C)cc1 [EM-7105, reference compound] |  |  |  |  |  |  | Rat Androgen Receptor Binding RBA (%) R1881 = 100 (Rat Androgen Receptor): 3.9%; IC50 [1, 5]: 9.4 nM; LNCaP Cells Antiandrogenic activity (PSA) % inhibition at 10^−7M [2]: 26%; Human Androgen Receptor Binding RBA (%) R1881 = 100 (Human Androgen Receptor; transfected cells): 41% and 41 ± 30%; times more binding to the human androgen receptor than the corresponding hydantoin (Human Androgen Receptor): around 140 times
CCNCc1ccc(OCCCN2C(=S)N(c3ccc(C#N)c(C(F)(F)F)c3)C(=O)C2(C)C)cc1 [EM-7148, reference compound] |  |  |  |  |  |  | IC50 [1, 5]: 9.2 nM; LNCaP Cells Antiandrogenic activity (PSA) % inhibition at 10^−7M [2]: 33%; Human Androgen Receptor Binding RBA (%) R1881 = 100 (Human Androgen Receptor; transfected cells): 11% and 11 ± 1%
Cc1c(N2C(=O)C(C)(C)N(CCCOc3ccc(-c4ccncc4)cc3)C2=S)ccc(C#N)c1C(F)(F)F [EM-8691] | > 100 nM | potent SARM | 163% | 24% | 39% | 525 ± 362 (n = 3) % | affinity for the androgen receptor (in words) (Human Androgen Receptor): high affinity
Cc1c(N2C(=O)C(C)(C)N(CCCOc3ccc(-c4ccncc4)c(C(F)(F)F)c3)C2=S)ccc(C#N)c1C(F)(F)F [EM-8821] | 11.5 nM | weaker SARM | 74% | 22% | 22% |  | affinity for the androgen receptor (in words) (Human Androgen Receptor): decreased affinity; Human Androgen Receptor Binding RBA (%) R1881 = 100 (Human Androgen Receptor; transfected cells): 28.3%
CC1(C)C(=O)N(c2ccc(C#N)c(Cl)c2)C(=S)N1CCCOc1ccc(-c2ccncc2)cc1Cl [EM-9052] | 61 nM |  |  |  |  |  | inhibition at 0.1 µM ([2]; LNCaP): 26%; times more binding to the human androgen receptor than the corresponding hydantoin (Human Androgen Receptor): 27 times
CC1(C)C(=O)N(c2ccc(C#N)c(Cl)c2)C(=O)N1CCCOc1ccc(-c2ccncc2)cc1 [EM-9116] | 17 ± 5 nM | better antiandrogens |  |  |  | 9.2 ± 1.9 (n = 5) % | affinity for the androgen receptor (in words) (Human Androgen Receptor): higher affinity
CC1(C)C(=O)N(c2ccc(C#N)c(Cl)c2)C(=O)N1CCCOc1ccc(-c2ccncc2)cc1Cl [EM-9150] |  | antiandrogens | 1% | 0% | 0% |  | Rat Androgen Receptor Binding RBA (%) R1881 = 100 (Rat Androgen Receptor): 6.5%; times more potent than OH-flutamide in the rat AR assay (Rat Androgen Receptor; versus OH-flutamide): 65 times; times more potent than bicalutamide in the rat AR assay (Rat Androgen Receptor; versus bicalutamide): 32 times; concentration at 7 h ([4]; bulbocavernosus muscles, read-out: intramuscular concentration): 1.2 ng/g; concentration at 7 h ([4]; plasma, read-out: plasma concentration): 0.9 ng/mL; Kp at 7 h ([4]; prostate / plasma, oral, read-out: concentration in the rat prostate versus plasma): ~3; concentration at 7 h ([4]; ventral prostate, read-out: intraprostatic concentration): 2.9 ng/g; stimulation at 10^−7M on basal Shionogi cell proliferation (in words) ([1]; basal (no DHT), 10^−7M): absence of stimulation; inhibition at 0.1 µM ([2]; LNCaP): 57%; times more potent than bicalutamide in blocking R1881-stimulated PSA secretion ([2]; LNCaP, versus bicalutamide): 11.0 times and 10 times; stimulation at 10^−7M of basal PSA levels in LNCaP cells (in words) ([2]; basal (no R1881), 10^−7M): absence of stimulation; also recorded: no stimulation; times more inhibition of PSA levels in human LNCaP cells compared to the thiohydantoins ([2]; versus thiohydantoins of WO 2006/133567): ≥ 2 times; agonistic activity on ventral prostate weight (in words) ([3]; daily oral dosing for 7 days, immature castrated rat): no agonistic activity; times more potent than bicalutamide to displace R1881 from the human AR (Human Androgen Receptor; versus bicalutamide): 247 times
Cc1c(N2C(=O)N(CCCOc3ccc(-c4cc[n+]([O-])cc4)cc3Cl)C(C)(C)C2=O)ccc(C#N)c1Cl [EM-9252] | > 100 nM | selective androgen receptor modulators | 105 ± 9 (n = 2) % | 29 ± 5 (n = 2) % | 46 ± 5 (n = 2) % | 96.3% | 
Cc1c(N2C(=O)NC(C)(C)C2=O)ccc(C#N)c1Cl [EM-9289] | ~1000 nM | selective androgen receptor modulators | 138 ± 15 (n = 2) % | 38 ± 5 (n = 2) % | 50 ± 6 (n = 2) % | 1.0% | 
Cc1c(N2C(=O)N(CCCOc3ccc(-c4ccncc4F)cc3)C(C)(C)C2=O)ccc(C#N)c1Cl [EM-9311] | > 100 nM |  | 119 ± 8 (n = 2) % | 24 ± 3 (n = 2) % | 39 ± 1 (n = 2) % | 89.0% | 
Cc1c(N2C(=O)N(CCCOc3ccc(-c4cc[n+]([O-])cc4Cl)cc3)C(C)(C)C2=O)ccc(C#N)c1Cl [EM-9313] | > 100 nM |  | 88 ± 2 (n = 2) % | 14 ± 9 (n = 2) % | 36 ± 2 (n = 2) % | 34.1% | 
Cc1c(N2C(=O)N(CCCOc3ccc(-c4cc[n+]([O-])cc4F)cc3)C(C)(C)C2=O)ccc(C#N)c1Cl [EM-9318] | 100 nM |  | 92 ± 27 (n = 2) % | 14 ± 9 (n = 2) % | 42 ± 3 (n = 2) % |  | Human Androgen Receptor Binding RBA (%) R1881 = 100 (Human Androgen Receptor; transfected cells): 46.1%
Cc1c(N2C(=O)N(CCCOc3ccc(-c4cc[n+]([O-])cc4)cc3C(F)(F)F)C(C)(C)C2=O)ccc(C#N)c1Cl [EM-9319] | 97.8 nM |  | 110 ± 10 (n = 2) % | 17 ± 10 (n = 2) % | 39 ± 2 (n = 2) % | 9.6% | 
Cc1c(N2C(=O)N(CCCOc3ccc(-c4ccncc4)c(C(F)(F)F)c3)C(C)(C)C2=O)ccc(C#N)c1Cl [EM-9333] | 73 nM |  | 93 ± 23 (n = 2) % | 19 ± 5 (n = 2) % | 38 ± 2 (n = 2) % | 64.1% | 
Cc1c(N2C(=O)N(CCCOc3ccc(-c4cc[n+]([O-])cc4)c(C(F)(F)F)c3)C(C)(C)C2=O)ccc(C#N)c1Cl [EM-9334] | 28.9 nM |  | 86% | 17% | 30% | 17.8% | 

From patent publication US9682960B2 (priority 2013, dated 2017)
